According to ChEMBL document CHEMBL4364295, “Discovery of a First-in-Class Receptor Interacting Protein 2 (RIP2) Kinase Specific Clinical Candidate, 2-((4-(Benzo[d]thiazol-5-ylamino)-6-(tert-butylsulfonyl)quinazolin-7-yl)oxy)ethyl Dihydrogen Phosphate, for the Treatment of Inflammatory Diseases” (J Med Chem, 2019):

What was measured:
[1] = AUC in Sprague-Dawley rat at 2 mg/kg, po by LC/MS/MS analysis; assay type: ADME, organism-based; details: in vivo
[2] = Oral bioavailability in Beagle dog at 2 mg/kg by LC/MS/MS analysis; assay type: ADME, organism-based, Canis lupus familiaris; details: in vivo
[3] = Cmax in Gottingen minipig at 1 mg/kg, po by LC/MS/MS analysis; assay type: ADME, organism-based, Sus scrofa; parameters: dose 1 mg/kg, route oral; details: pig, in vivo
[4] = Volume of distribution at steady state in Gottingen minipig at 1 mg/kg, po or 0.4 mg/kg, iv by LC/MS/MS analysis; assay type: ADME, organism-based, Sus scrofa; details: pig, in vivo, read-out: Vdss
[5] = AUC in Sprague-Dawley rat at 60 mg/kg, po using crystalline sample during 7 day dose ranging study by LC/MS/MS analysis; assay type: ADME, organism-based; details: in vivo
[6] = Dose normalized AUC in Sprague-Dawley rat at 60 mg/kg, po using crystalline sample during 7 day dose ranging study by LC/MS/MS analysis; assay type: ADME, organism-based; details: in vivo, 168 h
[7] = target: T1, Interleukin-1 receptor type 1 (Homo sapiens, UniProt P14778); test: Inhibition of IL1R in human monocytes assessed as reduction in IL1beta-induced TNFalpha production; assay type: cell-based
T1 sequence (P14778 whole entry): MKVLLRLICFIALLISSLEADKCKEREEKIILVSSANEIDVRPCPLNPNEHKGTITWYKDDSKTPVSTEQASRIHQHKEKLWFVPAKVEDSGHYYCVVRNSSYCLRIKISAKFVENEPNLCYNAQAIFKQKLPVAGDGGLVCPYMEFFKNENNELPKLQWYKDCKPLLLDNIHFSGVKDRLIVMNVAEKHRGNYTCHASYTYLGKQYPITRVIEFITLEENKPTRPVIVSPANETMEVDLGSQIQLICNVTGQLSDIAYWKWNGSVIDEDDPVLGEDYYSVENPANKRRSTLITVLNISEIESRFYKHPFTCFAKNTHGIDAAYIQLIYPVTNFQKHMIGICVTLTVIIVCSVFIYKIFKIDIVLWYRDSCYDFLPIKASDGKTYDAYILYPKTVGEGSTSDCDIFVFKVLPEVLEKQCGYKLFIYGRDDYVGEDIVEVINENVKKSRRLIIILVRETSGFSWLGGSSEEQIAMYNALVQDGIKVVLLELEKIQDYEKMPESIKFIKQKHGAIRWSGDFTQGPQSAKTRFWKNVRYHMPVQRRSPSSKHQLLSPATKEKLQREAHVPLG

[8] = Cmax in Sprague-Dawley rat assessed as 2-((4-(Benzo[d]thiazol-5-ylamino)-6-(tert-butylsulfonyl)quinazolin-7-yl)oxy)ethanol level at 2 mg/kg, po by LC/MS/MS analysis; assay type: ADME, organism-based; parameters: dose 2 mg/kg, route oral; details: in vivo
[9] = AUC in Sprague-Dawley rat assessed as 2-((4-(Benzo[d]thiazol-5-ylamino)-6-(tert-butylsulfonyl)quinazolin-7-yl)oxy)ethanol level at 2 mg/kg, po by LC/MS/MS analysis; assay type: ADME, organism-based; details: in vivo
[10] = Oral bioavailability in Gottingen minipig assessed as 2-((4-(Benzo[d]thiazol-5-ylamino)-6-(tert-butylsulfonyl)quinazolin-7-yl)oxy)ethanol level at 1 mg/kg by LC/MS/MS analysis; assay type: ADME, organism-based, Sus scrofa; details: pig, in vivo
[11] = Prodrug conversion in Sprague-Dawley rat gut assessed as 2-((4-(Benzo[d]thiazol-5-ylamino)-6-(tert-butylsulfonyl)quinazolin-7-yl)oxy)ethanol formation at 2 mg/kg, po or 0.5 mg/kg, iv measured at 15 to 120 mins post dose; assay type: ADME, organism-based; details: in vivo
[12] = Solubility of the compound in FaSSIF measured after 4 hrs using hemi-calcium salt form of compound; assay type: physicochemical
[13] = Prodrug conversion in Han Wistar rat skin assessed as 2-((4-(Benzo[d]thiazol-5-ylamino)-6-(tert-butylsulfonyl)quinazolin-7-yl)oxy)ethanol formation at 2 mg/kg, iv administered as infusion for 4 hrs; assay type: ADME, organism-based, Zone of skin; details: in vivo
[14] = Drug uptake in Han Wistar rat brain at 2 mg/kg, iv administered as infusion for 4 hrs; assay type: ADME, organism-based; details: in vivo
[15] = Drug uptake in Han Wistar rat eye at 2 mg/kg, iv administered as infusion for 4 hrs; assay type: ADME, organism-based; details: in vivo
[16] = Prodrug conversion in mouse blood assessed as 2-((4-(Benzo[d]thiazol-5-ylamino)-6-(tert-butylsulfonyl)quinazolin-7-yl)oxy)ethanol formation at 0.25 to 145 mg/kg, po administered twice daily via gavage for 8 days; assay type: ADME, organism-based; details: in vivo, 192 h
[17] = Prodrug conversion in rat hepatocytes assessed as 2-((4-(Benzo[d]thiazol-5-ylamino)-6-(tert-butylsulfonyl)quinazolin-7-yl)oxy)ethanol formation at 20 uM measured after 4 hrs; assay type: ADME, cell-based, Hepatocyte
[18] = Prodrug conversion in rat hepatocytes assessed as 2-(4-(benzo[d]thiazol-5-ylamino)-6-(tert-butylsulfonyl)quinazolin-7-yloxy)acetic acid formation at 20 uM measured after 4 hrs; assay type: ADME, cell-based, Hepatocyte
[19] = Prodrug conversion in rat hepatocytes assessed as oxidation at 20 uM measured after 4 hrs; assay type: ADME, cell-based, Hepatocyte
[20] = Prodrug conversion in minipig hepatocytes assessed as 2-(4-(benzo[d]thiazol-5-ylamino)-7-(2-hydroxyethoxy)quinazolin-6-ylsulfonyl)-2-methylpropan-1-ol formation at 20 uM measured after 4 hrs; assay type: ADME, cell-based, Sus scrofa, Hepatocyte; details: pig
[21] = Prodrug conversion in minipig hepatocytes assessed as 2-(4-(benzo[d]thiazol-5-ylamino)-6-(tert-butylsulfonyl)quinazolin-7-yloxy)acetic acid formation at 20 uM measured after 4 hrs; assay type: ADME, cell-based, Sus scrofa, Hepatocyte; details: pig
[22] = Prodrug conversion in minipig hepatocytes assessed as hydrogenation at 20 uM measured after 4 hrs; assay type: ADME, cell-based, Sus scrofa, Hepatocyte; details: pig
[23] = Prodrug conversion in Sprague-Dawley rat stomach assessed as 2-((4-(Benzo[d]thiazol-5-ylamino)-6-(tert-butylsulfonyl)quinazolin-7-yl)oxy)ethanol formation at 2 mg/kg, po or 0.5 mg/kg, iv measured at 15 to 120 mins post dose; assay type: ADME, organism-based; details: in vivo

For `CC(C)(C)S(=O)(=O)c1cc2c(Nc3ccc4scnc4c3)ncnc2cc1OCCO`, the AUC [1] was 460 ng·h/mL, the bioavailability [2] was 57% and the Cmax [3] was 31 ng/mL. It also gave a Vd [4] of 1.8 L/kg, an AUC at 168 h [5] of 23400 ng·h/mL and an AUC/dose [6] of 0.39 kg·h/L. The IC50 [7] was greater than 10 µM.

`CC(C)(C)S(=O)(=O)c1cc2c(Nc3ccc4scnc4c3)ncnc2cc1OCCOP(=O)(O)O.[CaH2]` showed a Cmax [8] of 170 ng/mL, an AUC [9] of 560 ng·h/mL and an F [10] of 58%. For the same compound, the Drug metabolism [11] was “Metabolite_Detected”, the solubility at 4 h [12] was 130 µg/mL and the Drug metabolism [13] was “Metabolite_Detected”. For the same compound, the Drug uptake [14] was “Not Active”, the Drug uptake [15] was “Not Active” and the Drug metabolism [16] was “Metabolite_Detected”. For the same compound, the Drug metabolism [17] was “Metabolite_Detected”, the Drug metabolism [18] was “Metabolite_Detected” and the Drug metabolism [19] was “Metabolite_Detected”. For the same compound, the Drug metabolism [20] was “Metabolite_Detected”, the Drug metabolism [21] was “Metabolite_Detected” and the Drug metabolism [22] was “Metabolite_Detected”. The Drug metabolism [23] was “Metabolite_Detected”.
